Experimental data reported in US11083725B2 (priority 2014, dated 2021).

System: NHBE cells
Assay: Biolog metabolic array: substrate use by NHBE cells with or without CA09 infection
Format: cell-based, human
Details: for Substrate use, 590 nm absorbance normalized to zero hour, 0 hr: Biolog PMM2, 0 hr; for Substrate use, 590 nm absorbance normalized to zero hour, 1 hr: Biolog PMM2, 1 hr; for Substrate use, 590 nm absorbance normalized to zero hour, 5 hr: Biolog PMM2, 5 hr; for Substrate use, 590 nm absorbance normalized to zero hour, 7 hr: Biolog PMM2, 7 hr
[1] = Control (uninfected) NHBE cells
[2] = Virus (CA09-infected, MOI 1) NHBE cells
[3] = Virus: CA09-infected NHBE cells, MOI 1, Biolog PMM2
[4] = Virus (CA09-infected NHBE cells, MOI 1)
[5] = Virus (CA09, MOI 1) infected NHBE cells

## OC[C@H]1O[C@H](OC[C@H]2O[C@H](O[C@]3(CO)O[C@H](CO)[C@@H](O)[C@@H]3O)[C@H](O)[C@@H](O)[C@@H]2O)[C@H](O)[C@@H](O)[C@H]1O [D-Raffinose]
[1]
  590 nm absorbance normalized to zero hour (substrate use), 0 hr: 1.00
  590 nm absorbance normalized to zero hour (substrate use), 1 hr: 1.09
  590 nm absorbance normalized to zero hour (substrate use), 2 hr: 1.11
  590 nm absorbance normalized to zero hour (substrate use), 3 hr: 1.37
  590 nm absorbance normalized to zero hour (substrate use), 4 hr: 1.53
  590 nm absorbance normalized to zero hour (substrate use), 6 hr: 0.75
  590 nm absorbance normalized to zero hour (substrate use), 8 hr: 1.82
  590 nm absorbance normalized to zero hour (substrate use), 9 hr: 1.82
  590 nm absorbance normalized to zero hour (substrate use), 10 hr: 2.00
  590 nm absorbance normalized to zero hour (substrate use), 11 hr: 2.15
  Substrate use, 590 nm absorbance normalized to zero hour, 0 hr: 1.00
  Substrate use, 590 nm absorbance normalized to zero hour, 1 hr: 1.09
  Substrate use, 590 nm absorbance normalized to zero hour, 5 hr: 1.75
  Substrate use, 590 nm absorbance normalized to zero hour, 7 hr: 1.71
[2]
  590 nm absorbance normalized to zero hour (substrate use), 0 hr: 1.00
  590 nm absorbance normalized to zero hour (substrate use), 1 hr: 0.68
  590 nm absorbance normalized to zero hour (substrate use), 2 hr: 0.59
  590 nm absorbance normalized to zero hour (substrate use), 3 hr: 0.55
  590 nm absorbance normalized to zero hour (substrate use), 4 hr: 0.49
  590 nm absorbance normalized to zero hour (substrate use), 5 hr: 1.98
  590 nm absorbance normalized to zero hour (substrate use), 6 hr: 0.54
  590 nm absorbance normalized to zero hour (substrate use), 7 hr: 1.92
  590 nm absorbance normalized to zero hour (substrate use), 8 hr: 1.77
  590 nm absorbance normalized to zero hour (substrate use), 9 hr: 1.74
  590 nm absorbance normalized to zero hour (substrate use), 10 hr: 1.15
  590 nm absorbance normalized to zero hour (substrate use), 11 hr: 1.53
[3]
  590 nm absorbance normalized to zero hour (substrate use), 0 hr: 1.00
  590 nm absorbance normalized to zero hour (substrate use), 1 hr: 0.68
  590 nm absorbance normalized to zero hour (substrate use), 2 hr: 0.59
  590 nm absorbance normalized to zero hour (substrate use), 3 hr: 0.55
  590 nm absorbance normalized to zero hour (substrate use), 4 hr: 0.49
  590 nm absorbance normalized to zero hour (substrate use), 5 hr: 1.98
  590 nm absorbance normalized to zero hour (substrate use), 6 hr: 0.54
  590 nm absorbance normalized to zero hour (substrate use), 7 hr: 1.92
  590 nm absorbance normalized to zero hour (substrate use), 8 hr: 1.77
  590 nm absorbance normalized to zero hour (substrate use), 9 hr: 1.74
  590 nm absorbance normalized to zero hour (substrate use), 10 hr: 1.15
  590 nm absorbance normalized to zero hour (substrate use), 11 hr: 1.53

## C[C@@H](O)[C@H](O)[C@H](O)[C@@H](O)C=O [D-Fucose]
[1]
  590 nm absorbance normalized to zero hour (substrate use), 0 hr: 1.00
  590 nm absorbance normalized to zero hour (substrate use), 1 hr: 1.61
  590 nm absorbance normalized to zero hour (substrate use), 2 hr: 1.96
  590 nm absorbance normalized to zero hour (substrate use), 3 hr: 2.02
  590 nm absorbance normalized to zero hour (substrate use), 4 hr: 2.15
  590 nm absorbance normalized to zero hour (substrate use), 6 hr: 2.11
  590 nm absorbance normalized to zero hour (substrate use), 8 hr: 2.49
  590 nm absorbance normalized to zero hour (substrate use), 9 hr: 2.69
  590 nm absorbance normalized to zero hour (substrate use), 10 hr: 2.78
  590 nm absorbance normalized to zero hour (substrate use), 11 hr: 2.97
  Substrate use, 590 nm absorbance normalized to zero hour, 0 hr: 1.00
  Substrate use, 590 nm absorbance normalized to zero hour, 1 hr: 1.61
  Substrate use, 590 nm absorbance normalized to zero hour, 5 hr: 2.65
  Substrate use, 590 nm absorbance normalized to zero hour, 7 hr: 2.19
[4]
  590 nm absorbance normalized to zero hour (substrate use), 0 hr: 1.00
  590 nm absorbance normalized to zero hour (substrate use), 1 hr: 0.66
  590 nm absorbance normalized to zero hour (substrate use), 2 hr: 0.33
  590 nm absorbance normalized to zero hour (substrate use), 3 hr: 0.67
  590 nm absorbance normalized to zero hour (substrate use), 4 hr: 0.64
  590 nm absorbance normalized to zero hour (substrate use), 5 hr: 0.62
  590 nm absorbance normalized to zero hour (substrate use), 6 hr: 0.65
  590 nm absorbance normalized to zero hour (substrate use), 7 hr: 0.65
  590 nm absorbance normalized to zero hour (substrate use), 8 hr: 0.60
  590 nm absorbance normalized to zero hour (substrate use), 9 hr: 0.52
  590 nm absorbance normalized to zero hour (substrate use), 10 hr: 0.57
  590 nm absorbance normalized to zero hour (substrate use), 11 hr: 0.61
[3]
  590 nm absorbance normalized to zero hour (substrate use), 0 hr: 1.00
  590 nm absorbance normalized to zero hour (substrate use), 1 hr: 0.66
  590 nm absorbance normalized to zero hour (substrate use), 2 hr: 0.33
  590 nm absorbance normalized to zero hour (substrate use), 3 hr: 0.67
  590 nm absorbance normalized to zero hour (substrate use), 4 hr: 0.64
  590 nm absorbance normalized to zero hour (substrate use), 5 hr: 0.62
  590 nm absorbance normalized to zero hour (substrate use), 6 hr: 0.65
  590 nm absorbance normalized to zero hour (substrate use), 7 hr: 0.65
  590 nm absorbance normalized to zero hour (substrate use), 8 hr: 0.60
  590 nm absorbance normalized to zero hour (substrate use), 9 hr: 0.52
  590 nm absorbance normalized to zero hour (substrate use), 10 hr: 0.57
  590 nm absorbance normalized to zero hour (substrate use), 11 hr: 0.61

## NC(=O)CCC(=O)O [Succinamic Acid]
[1]
  590 nm absorbance normalized to zero hour (substrate use), 1 hr: 1.11
  590 nm absorbance normalized to zero hour (substrate use), 2 hr: 0.37
  590 nm absorbance normalized to zero hour (substrate use), 3 hr: 0.42
  590 nm absorbance normalized to zero hour (substrate use), 4 hr: 0.42
  590 nm absorbance normalized to zero hour (substrate use), 6 hr: 0.44
  590 nm absorbance normalized to zero hour (substrate use), 8 hr: 0.51
  590 nm absorbance normalized to zero hour (substrate use), 9 hr: 0.54
  590 nm absorbance normalized to zero hour (substrate use), 10 hr: 0.56
  590 nm absorbance normalized to zero hour (substrate use), 11 hr: 0.61
  Substrate use, 590 nm absorbance normalized to zero hour, 1 hr: 1.11
  Substrate use, 590 nm absorbance normalized to zero hour, 5 hr: 0.45
  Substrate use, 590 nm absorbance normalized to zero hour, 7 hr: 0.50
[5]
  Substrate use, 590 nm absorbance normalized to zero hour, 1 hr: 1.45
  Substrate use, 590 nm absorbance normalized to zero hour, 5 hr: 2.03
  Substrate use, 590 nm absorbance normalized to zero hour, 7 hr: 2.22
[2]
  590 nm absorbance normalized to zero hour (substrate use), 1 hr: 1.45
  590 nm absorbance normalized to zero hour (substrate use), 2 hr: 1.65
  590 nm absorbance normalized to zero hour (substrate use), 3 hr: 1.88
  590 nm absorbance normalized to zero hour (substrate use), 4 hr: 1.85
  590 nm absorbance normalized to zero hour (substrate use), 6 hr: 2.14
  590 nm absorbance normalized to zero hour (substrate use), 8 hr: 2.30
  590 nm absorbance normalized to zero hour (substrate use), 9 hr: 2.41
  590 nm absorbance normalized to zero hour (substrate use), 10 hr: 2.37
  590 nm absorbance normalized to zero hour (substrate use), 11 hr: 2.51
